Key:
Experiment in all cases: MIC, broth microdilution (NCCLS M7-A6)
Assay type in all cases: cell-based
[1] = system: Pseudomonas aeruginosa (67/2B)2R.A. [DSM 18988]; conditions: P. aeruginosa (67/2B)2R.A.; combinations of equal weights; IsoSensiTest Broth + 16 μg/mL 2,2'-bipyridyl
Experimental: (§1) Antimicrobial activity of the compounds and of their combinations is determined against a selection of organisms according to standard procedures described by the National Committee for Clinical Laboratory Standards (NCCLS document M7-A6). […] In all cases the final concentration of DMSO incubated with the bacteria is less than or equal to 1%. […] Plates are incubated overnight at an appropriate temperature (30° C. or 37° C.) and optical densities assessed by eye. The MIC value is defined as the lowest compound concentration completely inhibiting visible growth of the test organism. Synergism tests are performed under the same conditions as described above but with two antimicrobial agents dispensed in checkerboard format [Isenberg H D (1992) Synergism testing: Broth microdilution checkerboard and broth macrodilution methods. In: Clinical Microbiology Procedures Manual vol. 1. Washington, D.C.: American Society for Microbiology. […] The strains used are: Pseudomonas aeruginosa 6067 (Accession number at the DSMZDeutsche Sammlung von Mikroorganismen and Zellkulturen GmbH, Inhoffenstr. 7 B, D-38124 Braunschweig: […] (DSM 18988), Achromobacter (formerly Alcaligenes) xylosoxidans QK3/96 (DSM 18991), Enterobacter aerogenes Zayakosky 5 (DSM 18992).

[2] = system: Pseudomonas aeruginosa 6067 [DSM 18987]; conditions: P. aeruginosa 6067; combinations of equal weights; IsoSensiTest Broth + 16 μg/mL 2,2'-bipyridyl
Experimental: as §1

[3] = system: Enterobacter aerogenes Zayakosky 5 [DSM 18992]; conditions: E. aerogenes Zayakosky 5; combinations of equal weights; IsoSensiTest Broth + 16 μg/mL 2,2'-bipyridyl
Experimental: as §1

[4] = system: Achromobacter (formerly Alcaligenes) xylosoxidans QK3/96 [DSM 18991]; conditions: A. xylosoxidans QK3/96; combinations of equal weights; IsoSensiTest Broth + 16 μg/mL 2,2'-bipyridyl
Experimental: as §1

| SMILES | Minimum Inhibitory Concentration [1] | Minimum Inhibitory Concentration [2] | Minimum Inhibitory Concentration [3] | Minimum Inhibitory Concentration [4] |
| --- | --- | --- | --- | --- |
| C[C@H]1[C@H](NC(=O)/C(=N\OC(C)(C)C(=O)O)c2csc(N)n2)C(=O)N1S(=O)(=O)O [Aztreonam, (Z)-2-[[[(2-amino-4-thiazolyl)[[(2S,3S)-2-methyl-4-oxo-1-sulfo-3-azetidinyl]-carbamoyl]methylene]amino]oxy]-2-methylpropionic acid] | 4 mg/L | 16 mg/L | 64 mg/L | >64 mg/L |
| C[C@H]1[C@H](NC(=O)/C(=N\OCc2cc(=O)c(O)cn2O)c2cccs2)C(=O)N1S(=O)(=O)O [Compound A, (3S)-trans-3-[(E)-2-(2-thienyl)-2-{(1,5-dihydroxy-4-pyridon-2-ylmethoxy)imino}-acetamido]-4-methyl-2-oxazetidine-1-sulfonic acid] | >64 mg/L | >64 mg/L | >64 mg/L | >64 mg/L |
| C[C@H]1[C@H](NC(=O)/C(=N/OCc2cc(=O)c(O)cn2O)c2cccs2)C(=O)N1S(=O)(=O)O [Compound B] | >64 mg/L | >64 mg/L | >64 mg/L | >64 mg/L |
| CC1(C)[C@H](NC(=O)/C(=N\OCc2cc(=O)c(O)cn2O)c2csc(N)n2)C(=O)N1OS(=O)(=O)O [Compound of formula I, (3S)-3-{(2Z)-2-(2-amino(1,3-thiazol-4-yl))-3-[(1,5-dihydroxy-4-oxo(2-hydropyridyl))methoxy]-3-azaprop-2-enoylamino}-4,4-dimethyl-2-oxoazetidinyl hydroxysulfonate] | 32 mg/L | 16 mg/L | 16 mg/L | 16 mg/L |
| C[C@@H](O)[C@H]1C(=O)N2C(C(=O)O)=C(S[C@@H]3CN[C@H](CNS(N)(=O)=O)C3)[C@H](C)[C@H]12 [Doripenem] | 4 mg/L | 16 mg/L | 8 mg/L | 16 mg/L |
| C[C@@H](O)[C@H]1C(=O)N2C(C(=O)O)=C(S[C@@H]3CN[C@H](C(=O)Nc4cccc(C(=O)O)c4)C3)[C@H](C)[C@H]12 [Ertapenem] | >32 mg/L | >32 mg/L | >32 mg/L | >32 mg/L |
| C[C@@H](O)[C@H]1C(=O)N2C(C(=O)O)=C(SCCN=CN)C[C@H]12 [Imipenem] | 16 mg/L | 4 mg/L | 32 mg/L | 4 mg/L |
| C[C@@H](O)[C@H]1C(=O)N2C(C(=O)O)=C(S[C@@H]3CN[C@H](C(=O)N(C)C)C3)[C@H](C)[C@H]12 [Meropenem] | 4 mg/L | 16 mg/L | 16 mg/L | 16 mg/L |
